{"source": "patent US20240262791A1", "about": "“B[…] […] AMINO ACIDS” (priority 2021, published 2024)", "key": {"[1]": {"system": "HeLa-EGFP (182TAG) reporter cells", "test": "Genetic incorporation of mFSY in HeLa-EGFP (182TAG) reporter cells", "assay_type": "cell-based", "conditions": "no mFSY added or 1 mM mFSY added", "from_the_text": "FIGS. 12A-12C: Genetic incorporation of mFSY into proteins in mammalian cells. FIG. 12A: FACS analysis of mFSY incorporation into HeLa-EGFP (182TAG) cells. Negative control cells were either not transfected with any plasmid or were not treated with mFSY. FACS data is representative of three biological replicates. FIG. 12B: Bar graph showing total EGFP fluorescence percentage from FACS data. Error bar: s.d., n=3. FIG. 12C: Fluorescence microscopy and brightfield images of HeLa-EGFP (182TAG) reporter cells under two conditions: no mFSY added or 1 mM mFSY added."}, "WT Spike RBD": {"biological_target": "T1, WT Spike RBD (Severe acute respiratory syndrome coronavirus 2, UniProt P0DTC2)", "T1 construct": "SARS-CoV-2 spike protein, RBD, 6His tag (S protein) was purchased from ACRObiosystems (#SRD-C52H3); purchased ACRObiosystems #SRD-C52H3", "assay_type": "biochemical, SARS-CoV-2"}, "Afb7X": {"system": "Afb7X", "test": "Afb7X and MBP-Z(24F-FSY) cross-linking", "assay_type": "biochemical", "conditions": "MBP-Z(24F-FSY) with Afb7X, PBS pH 7.4, 37° C., 12 h", "protocol": "We also introduced F-FSY into the maltose binding protein (MBP) fused Z protein at position 24 (MBP-Z(24F-FSY)). The purified MBP-Z(24F-FSY) was analyzed by electrospray ionization time-of-flight mass spectrometry (ESI-TOF MS). A peak observed at 50829 Da corresponds to intact MBP-Z containing F-FSY at site 24 (data not shown). We then tested the reactivities of F-FSY towards amino acid residue using the binding complex of MBP-Z and the Zspa affibody (Afb). Upon Afb-Z binding, F-FSY would be place in close proximity with the residue at position 7 of Afb (Afb7X) and would form a covalent bond with the targeting residue, causing protein-protein cross-linking.\n0.5 mg/ml Afb7X and 1 mg/ml MBP-Z(24F-FSY) were incubated in PBS (pH 7.4) at 37° C. for 12 h, after which 1 j.tL reaction solution was extracted and mixed with 10 j.tL Laemmli loading buffer. The mixture was heated to 95° C. for 10 min and then loaded for SDS-PAGE, after which the gel was stained with Coomassie blue and imaged with ChemiDoc™ MP imaging system (Bio-rad)."}, "[2]": {"test": "SFY crosslinking of protein residues and RNA in cells", "assay_type": "cell-based", "conditions": "E. coli and HEK293T cells", "description": "FIG. 4B: Fluorescence confocal images HEK293 cells expressing EGFP(40TAG) gene and the Mm-tRNA^Pyl/MmSFYRS with and without 1 mM SFY. FIG. 4C: Flow cytometric analysis of SFY incorporation into EGFP(40TAG) in HEK293 cells using Ma-tRNA^Pyl/MaSFYRS. […] FIGS. 4E-4F: Analysis of crosslinking of Afb(24SFY) with MBP-Z(7X) in E. coli cells. Western blot of E. coli cell lysate (FIG. 4E); SDS-PAGE of proteins His-tag purified from E. coli (FIG. 4F). Maltose binding protein (MBP) was fused to the N-terminus of Z protein to better separate Z from Afb in size. […] FIG. 4H: Western blot analysis of lysate of HEK293T cells expressing GST(103SFY-107X). X is the target residue indicated. FIG. 4I: Western blot analysis E. coli cells expressing Hfq with SFY incorporated at site 25 or 49. Cell lysate samples were treated with or without RNase before loading, and an anti-His antibody was used to detect the 6×His tag appended at the C-terminus of expressed Hfq."}, "HEK293T cells": {"system": "HEK293T cells", "assay_type": "cell-based", "conditions": "0 to 1 mM SFY, 24-48 h", "protocol": "2×10^4 cells/well of HEK293T cells were seeded in a 96-well plate. On the next day, the media were replaced with fresh DMEM media supplemented with 0, 0.0625, 0.125, 0.25, 0.5, or 1 mM of SFY. The SFY-treated and control cells were cultured for an additional 24-48 h at 37° C. and then analyzed with CellTiter-Blue® Cell Viability Assay following the manufacturer's instructions."}, "GST": {"system": "GST", "test": "Cross-linking of GST-103SFY-107X in live mammalian cells", "assay_type": "cell-based", "conditions": "SFY at site 103 of GST, residue 107 varied, HEK293T cells", "protocol": "[…] of pcDNA-GST-103TAG-107X (X=A, H, Y or K)^3 and […] of pNEU-MmSFYRS-4xU6M15 were co-transfected into target cells using 5 μL of lipofectamine 2000 following the manufacturer's instructions. Six hours post transfection, the media were replaced with complete DMEM media with or without 1 mM SFY. The cells were incubated at 37° C. for additional 48 h, collected, and applied for immunoblot analysis."}, "[3]": {"system": "nucleoside monophosphates (NMPs: AMP, UMP, CMP, or GMP)", "test": "In vitro incubations of NMPs and SFY", "conditions": "50 mM SFY, 50 mM NMP, 37° C.", "protocol": "In addition, to check if SFY could cross-link all four nucleotides, we incubated 50 mM SFY with 50 mM different nucleoside monophosphates (NMPs: AMP, UMP, CMP, or GMP) at 37° C. for 16 hours.\n50 mM SFY (HCl salt) and 50 mM NMP was incubated in DI H2O. 50 mM NaOH was added to neutralize the HCl salt. The mixture was incubated at 37° C. for 48 h. Then the reaction mixture was diluted for 50 times in H2O/acetonitrile (50/50, v/v, with 0.1% trifluoracetic acid) and subjected to mass spectrum analysis using positive mode. Mass spectrum analysis was performed on SCIEX MDS, 3200 Q TRAP system."}, "[4]": {"conditions": "healthy volunteers in phase I trial, patients in phase II trial; cited from earlier work"}}}
{"compound": "NC(Cc1cccc(OS(=O)(=O)F)c1)C(=O)O", "note": "[mFSY, meta-fluorosulfate-L-tyrosine]", "values": [{"measurement": "EGFP fluorescence (mFSY incorporation)", "setting": "[1]", "value": "Fluorescence is only seen after the addition of mFSY"}]}
{"compound": "NC(Cc1ccc(OS(=O)(=O)F)c(F)c1)C(=O)O", "note": "(centres unmarked) [FFY]", "values": [{"measurement": "PERx reaction rate over FSY in the mNB6 system", "setting": "WT Spike RBD", "value": 240, "unit": "%"}, {"measurement": "residues forming a covalent bond with F-FSY", "setting": "Afb7X", "value": "form a covalent bond with Lys, His and Tyr"}]}
{"compound": "COc1ccc(CC(N)C(=O)O)cc1S(=O)(=O)F", "note": "(centres unmarked) [SFY, o-sulfonyl fluoride-O-methyltyrosine]", "values": [{"measurement": "crosslinking capability of SFY", "setting": "[2]", "value": "allows crosslinking of His, Tyr, Lys residues in protein and of RNA in cells"}, {"measurement": "toxicity to HEK293T cells", "setting": "HEK293T cells", "value": "did not observe obvious toxicity"}, {"measurement": "residues reacting with SFY placed in proximity", "setting": "GST", "value": "react with His, Tyr, and Lys"}, {"measurement": "cross-linking adducts with NMPs detected by MS", "setting": "[3]", "value": "Cross-linking adducts of SFY with all four NMPs were detected"}]}
{"compound": "rhACE2", "values": [{"measurement": "safety and tolerability", "setting": "[4]", "value": "safe and well tolerated"}]}
